Results published in ChEMBL document CHEMBL1201862, “PubChem BioAssay data set” (2004).
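Tested at 5 concentrations; 48 h exposure; 96-well plates; endpoints linearly interpolated, else capped at highest concentration. At the GI50, growth is halved.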 The source made the active and inactive calls. Rule as the data show it: active = GI50 up to about 1.1 µM and inactive = higher.

Tests used:
Test in all cases: NCI tumour cell line growth inhibition, 48 h
[1] = test system: SW-620
[2] = test system: MDA-MB-231
[3] = test system: EKVX
[4] = test system: M14
[5] = test system: DU-145
[6] = test system: UACC-62
[7] = test system: NCI-H23
[8] = test system: Hs-578T
[9] = test system: Malme-3M
[10] = test system: HOP-62
[11] = test system: HCT-116
[12] = test system: ACHN
[13] = test system: A549
[14] = test system: NCI-H460
[15] = test system: SK-OV-3
[16] = test system: UACC-257
[17] = test system: K562
[18] = test system: CCRF-CEM
[19] = test system: SF-295
[20] = test system: CAKI-1
[21] = test system: MDA-MB-435
[22] = test system: IGROV-1
[23] = test system: U-251
[24] = test system: NCI/ADR-RES
[25] = test system: SNB-19
[26] = test system: NCI-H226
[27] = test system: HOP-92
[28] = test system: MCF7
[29] = test system: 786-0
[30] = test system: SF-268
[31] = test system: KM12
[32] = test system: T47D
[33] = test system: OVCAR-5
[34] = test system: MDA-N
[35] = test system: HT-29
[36] = test system: BT-549
[37] = test system: HCT-15
[38] = test system: COLO 205
[39] = test system: MOLT-4
[40] = test system: SN12C
[41] = test system: SR
[42] = test system: RPMI-8226
[43] = test system: PC-3
[44] = test system: HCC 2998
[45] = test system: OVCAR-4
[46] = test system: OVCAR-8
[47] = test system: A498
[48] = test system: SNB-75
[49] = test system: UO-31
[50] = test system: RXF 393
[51] = test system: SK-MEL-5
[52] = test system: OVCAR-3
[53] = test system: SK-MEL-28
[54] = test system: TK-10
[55] = test system: HL-60
[56] = test system: LOX IMVI
[57] = test system: SK-MEL-2
[58] = test system: SF-539

`C=C(C)COC(=O)COCC(=O)OCC(=C)C` was tested, and the GI50 [1] was > 100 µM (inactive), the GI50 [2] was > 100 µM (inactive) and the GI50 [3] was > 100 µM (inactive). For the same compound, the GI50 [4] was > 100 µM (inactive), the GI50 [5] was > 100 µM (inactive) and the GI50 [6] was > 100 µM (inactive). The GI50 [7] was > 100 µM (inactive), the GI50 [8] was > 100 µM (inactive) and the GI50 [9] was > 100 µM (inactive). The GI50 [10] was > 100 µM (inactive), the GI50 [11] was > 100 µM (inactive) and the GI50 [12] was > 100 µM (inactive). The GI50 [13] was > 100 µM (inactive), the GI50 [14] was > 100 µM (inactive) and the GI50 [15] was > 100 µM (inactive). For the same compound, the GI50 [16] was > 100 µM (inactive), the GI50 [17] was > 100 µM (inactive) and the GI50 [18] was > 100 µM (inactive). The GI50 [19] was > 100 µM (inactive), the GI50 [20] was > 100 µM (inactive) and the GI50 [21] was > 100 µM (inactive). For the same compound, the GI50 [22] was > 100 µM (inactive), the GI50 [23] was > 100 µM (inactive) and the GI50 [24] was > 100 µM (inactive). The GI50 [25] was > 100 µM (inactive), the GI50 [26] was > 100 µM (inactive) and the GI50 [27] was > 100 µM (inactive). The GI50 [28] was > 100 µM (inactive), the GI50 [29] was > 100 µM (inactive) and the GI50 [30] was > 100 µM (inactive). The GI50 [31] was > 100 µM (inactive), the GI50 [32] was > 100 µM (inactive) and the GI50 [33] was > 100 µM (inactive). For the same compound, the GI50 [34] was > 100 µM (inactive), the GI50 [35] was > 100 µM (inactive) and the GI50 [36] was > 100 µM (inactive). The GI50 [37] was > 100 µM, the GI50 [38] was > 100 µM (inactive) and the GI50 [39] was > 100 µM (inactive). The GI50 [40] was > 100 µM (inactive), the GI50 [41] was > 100 µM (inactive) and the GI50 [42] was > 100 µM (inactive). The GI50 [43] was 95.3 µM (inactive), the GI50 [44] was > 100 µM (inactive) and the GI50 [45] was > 100 µM (inactive). For the same compound, the GI50 [46] was > 100 µM (inactive), the GI50 [47] was > 100 µM (inactive) and the GI50 [48] was > 100 µM (inactive). The GI50 [49] was > 100 µM (inactive), the GI50 [50] was > 100 µM (inactive) and the GI50 [51] was > 100 µM (inactive). The GI50 [52] was > 100 µM (inactive), the GI50 [53] was > 100 µM (inactive) and the GI50 [54] was > 100 µM (inactive).

In the case of `CN(Cc1c[n+]([O-])c2nc(N)nc(N)c2n1)c1ccc(C(=O)NC23CC4CC(CC(C4)C2)C3)cc1`, the GI50 [1] is reported as > 100 µM (inactive), the GI50 [2] is reported as 98.9 µM (inactive) and the GI50 [55] is reported as 31 µM (inactive). For the same compound, the GI50 [3] was > 100 µM (inactive), the GI50 [4] was > 100 µM (inactive) and the GI50 [5] was > 100 µM (inactive). The GI50 [6] was > 100 µM (inactive), the GI50 [7] was > 100 µM (inactive) and the GI50 [56] was > 100 µM (inactive). For the same compound, the GI50 [8] was 10.6 µM (inactive), the GI50 [9] was 78.2 µM (inactive) and the GI50 [10] was > 100 µM (inactive). The GI50 [11] was > 100 µM (inactive), the GI50 [12] was > 100 µM (inactive) and the GI50 [14] was > 100 µM (inactive). The GI50 [15] was > 100 µM (inactive), the GI50 [16] was > 100 µM (inactive) and the GI50 [17] was 48.9 µM (inactive). The GI50 [18] was 28.6 µM (inactive), the GI50 [19] was > 100 µM (inactive) and the GI50 [20] was > 100 µM (inactive). The GI50 [21] was 77.4 µM (inactive), the GI50 [22] was 54.3 µM (inactive) and the GI50 [23] was 34.5 µM (inactive). For the same compound, the GI50 [24] was > 100 µM (inactive), the GI50 [25] was 92.7 µM (inactive) and the GI50 [26] was > 100 µM (inactive). For the same compound, the GI50 [57] was > 100 µM (inactive), the GI50 [28] was 47.8 µM (inactive) and the GI50 [29] was > 100 µM (inactive). The GI50 [30] was 26.3 µM (inactive), the GI50 [31] was > 100 µM (inactive) and the GI50 [32] was 75.2 µM (inactive). For the same compound, the GI50 [33] was > 100 µM (inactive), the GI50 [34] was 70.6 µM (inactive) and the GI50 [36] was 28.2 µM (inactive). The GI50 [37] was > 100 µM, the GI50 [38] was > 100 µM (inactive) and the GI50 [39] was 32.7 µM (inactive). For the same compound, the GI50 [40] was > 100 µM (inactive), the GI50 [41] was 28.8 µM (inactive) and the GI50 [42] was 93.1 µM (inactive). The GI50 [43] was 89.7 µM (inactive), the GI50 [46] was > 100 µM (inactive) and the GI50 [47] was 13.5 µM (inactive). For the same compound, the GI50 [48] was 20.2 µM (inactive), the GI50 [49] was > 100 µM (inactive) and the GI50 [50] was 31.2 µM (inactive). For the same compound, the GI50 [51] was 34.7 µM (inactive), the GI50 [52] was > 100 µM (inactive) and the GI50 [53] was 23.1 µM (inactive). The GI50 [54] was > 100 µM (inactive).

With `CCOC(=O)C1(C(=O)OCC)Nc2cccnc2N(C)N1` the GI50 [1] was 11.1 µM (inactive), the GI50 [2] was 20.2 µM (inactive) and the GI50 [55] was 22.8 µM (inactive). The GI50 [4] was 19.3 µM (inactive), the GI50 [5] was 18.7 µM (inactive) and the GI50 [6] was 18 µM (inactive). The GI50 [7] was 20.5 µM (inactive), the GI50 [56] was 25.4 µM (inactive) and the GI50 [8] was > 100 µM (inactive). For the same compound, the GI50 [9] was 48.1 µM (inactive), the GI50 [10] was 35.5 µM (inactive) and the GI50 [11] was 18.8 µM (inactive). For the same compound, the GI50 [13] was 96.8 µM (inactive), the GI50 [14] was > 100 µM (inactive) and the GI50 [15] was > 100 µM (inactive). The GI50 [16] was 17.6 µM (inactive), the GI50 [17] was 22.8 µM (inactive) and the GI50 [18] was 18.5 µM (inactive). For the same compound, the GI50 [19] was > 100 µM (inactive), the GI50 [20] was 19 µM (inactive) and the GI50 [21] was 18.9 µM (inactive). For the same compound, the GI50 [22] was 22.8 µM (inactive), the GI50 [23] was 20.8 µM (inactive) and the GI50 [24] was 20 µM (inactive). The GI50 [25] was > 100 µM (inactive), the GI50 [26] was 18.4 µM (inactive) and the GI50 [27] was 14.7 µM (inactive). The GI50 [57] was 19.3 µM (inactive), the GI50 [28] was 16.3 µM (inactive) and the GI50 [29] was 17.9 µM (inactive). The GI50 [30] was 40.6 µM (inactive), the GI50 [31] was 50.1 µM (inactive) and the GI50 [32] was 20.1 µM (inactive). The GI50 [58] was 16.6 µM (inactive), the GI50 [34] was 17.5 µM (inactive) and the GI50 [35] was 14.7 µM (inactive). The GI50 [36] was 67.3 µM (inactive), the GI50 [37] was 18 µM and the GI50 [38] was 11.6 µM (inactive). The GI50 [39] was 12.4 µM (inactive), the GI50 [40] was 19.1 µM (inactive) and the GI50 [41] was 37.1 µM (inactive). For the same compound, the GI50 [42] was 16.2 µM (inactive), the GI50 [43] was 22.8 µM (inactive) and the GI50 [45] was 17.7 µM (inactive). For the same compound, the GI50 [46] was 18.5 µM (inactive), the GI50 [47] was 17.5 µM (inactive) and the GI50 [48] was > 100 µM (inactive). The GI50 [49] was 17.4 µM (inactive), the GI50 [50] was 18 µM (inactive) and the GI50 [51] was 17.4 µM (inactive). For the same compound, the GI50 [52] was 20.5 µM (inactive), the GI50 [53] was 21.9 µM (inactive) and the GI50 [54] was 20.9 µM (inactive).
